According to patent US7271161B2, “Platinum complexes as antitumor agents in combination with biochemical modulation” (Board of Regents, the University of Texas System, priority 2002, dated 2007):
Like-named read-outs stand apart in the source and are kept apart here.

What was measured:
[1] = system: human melanoma cell line (RPMI 8322); conditions: cited from earlier work
[2] = target: T1, γ-Glutamylcysteine synthetase (Rattus norvegicus, UniProt P19468); conditions: cited from earlier work
T1 sequence (P19468 1-637): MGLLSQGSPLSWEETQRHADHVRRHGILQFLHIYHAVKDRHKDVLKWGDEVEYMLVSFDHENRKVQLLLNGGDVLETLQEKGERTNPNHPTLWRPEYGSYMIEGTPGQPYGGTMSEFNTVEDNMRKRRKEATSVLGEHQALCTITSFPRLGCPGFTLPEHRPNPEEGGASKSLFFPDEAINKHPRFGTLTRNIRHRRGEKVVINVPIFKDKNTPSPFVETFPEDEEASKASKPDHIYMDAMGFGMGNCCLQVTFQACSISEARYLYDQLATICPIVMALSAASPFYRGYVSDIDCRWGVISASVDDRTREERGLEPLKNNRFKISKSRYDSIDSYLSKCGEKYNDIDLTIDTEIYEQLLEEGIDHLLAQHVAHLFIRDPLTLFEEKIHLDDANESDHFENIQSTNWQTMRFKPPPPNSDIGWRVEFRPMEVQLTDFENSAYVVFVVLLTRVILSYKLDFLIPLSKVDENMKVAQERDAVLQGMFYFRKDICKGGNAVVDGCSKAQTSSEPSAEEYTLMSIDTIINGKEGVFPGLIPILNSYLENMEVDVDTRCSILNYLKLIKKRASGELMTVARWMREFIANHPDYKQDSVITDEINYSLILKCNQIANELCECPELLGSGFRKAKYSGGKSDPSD

SKOV-3 cell line = assay: MTT cytotoxicity assay, cisplatin-resistant SKOV-3 cells, with or without BSO; type: cell-based, Human; conditions: for IC50: Table 4
Excerpt: (§1) The ovarian A2780 and 2008 cell lines are sensitive to cisplatin, while the corresponding 2780CP and 2008/C13* cell lines were selected for resistance following in vitro exposure to cisplatin. The SKOV-3 cell line was established from a patient who was resistant to cisplatin therapy and is considered a model of cisplatin resistance. The A2780 and 2780CP cells have wild-type p53 function, while SKOV-3 is devoid of p53 function. The p53 status for the 2008 and 2008/C131 cells is presently not known.
(§2) Procedure for Cytotoxic Evaluation. All cell lines are maintained in RPMI 1640 medium supplemented with 10% fetal bovine serum, 50 μg/ml penicillin, 50 μg/ml streptomycin, 100 μg/ml neomycin and 0.3 mg/ml L-glutamine. The ovarian lines also require 2 μg/ml insulin for maximal growth. Cells are grown as monolayers at 37° C. in a humidified atmosphere of 5% CO2:95% air. Cytotoxicity is determined by a standard MTT assay. Briefly, the exponentially-growing cells are trypsinized to dislodge them before use. After diluting the tumor cells to appropriate concentrations (2,000-30,000 cells/ml), 100 μl aliquots of the cell suspensions are added to each well of a 96-well microtiter plate. The cells are allowed to attach overnight, and then exposed for 24 hr to BSO at a concentration that is equal to or less than maximally tolerated concentration (MTC). At 22 hr after addition of BSO, the platinum complex is added, and 2 hr later the cells are washed and reincubated. After another 5 days, when control cells are in an exponential phase of growth, 50 μl of an MTT solution (3 mg/ml) is added to each well. Following a 3-hr incubation, the medium is removed and replaced by 50 μl of 100% DMSO to dissolve MTT formazan crystals. Plates are agitated on a plate shaker for 5 min, and absorbances are measured at 570 nm in a multiwell scanning spectrophotometer.
(§3) IC50 values, defined as the drug concentration (μM) inhibiting cell growth by 50% compared to control wells, are determined by fitting a sigmoidal curve to the data using a computer program. Resistance factor is calculated as a ratio of the IC50 against resistant cell line to the IC50 against parent cell line. The dose modification factor (DMF) is derived from a ratio of IC50 without BSO to that with BSO.

[3] = system: sensitive and resistant cells; conditions: cited from earlier work
Human A2780 cell line = assay: MTT cytotoxicity assay, cisplatin-sensitive ovarian A2780 cells, with or without BSO; type: cell-based; conditions: for IC50: Table 4
Excerpt: as §1, §2, §3

2008 cell line = assay: MTT cytotoxicity assay, cisplatin-sensitive ovarian 2008 cells, with or without BSO; type: cell-based, Human; conditions: for IC50: Table 4
Excerpt: as §1, §2, §3

2008/C13* cell line = assay: MTT cytotoxicity assay, cisplatin-resistant ovarian 2008/C13* cells, with or without BSO; type: cell-based, Human; conditions: for IC50: Table 4
Excerpt: as §1, §2, §3

Human 2780CP cell line = assay: MTT cytotoxicity assay, cisplatin-resistant ovarian 2780CP cells, with or without BSO; type: cell-based; parameters: key to DMF vs. 2780CP Control (Without BSO) / DMF Control / DMF +BSO (MTC): DMF = IC50 without BSO / IC50 with BSO; conditions: for IC50: Table 4
Excerpt: as §1, §2, §3

SMILES: N[C@@H](Cc1ccc(N(CCCl)CCCl)cc1)C(=O)O [melphalan]
- effect of BSO pretreatment on cytotoxicity [1]: enhanced cytotoxicity

SMILES: CCCCS(=N)(=O)CCC(N)C(=O)O (centres unmarked) [S-butyl homocysteine sulfoximine]
- inhibition effectiveness relative to methionine sulfoximine ([2]; vs. methionine sulfoximine): at least 100 times
- inhibition effectiveness relative to prothionine sulfoximine ([2]; vs. prothionine sulfoximine): about 20 times

SMILES: N.N.[Cl][Pt][Cl] [Complex 1, cis-diamminedichloroplatinum, reference compound]
- IC50 (SKOV-3 cell line; SKOV-3, BSO at sub-MTC, read-out: IC50 +BSO (MTC)): 21.1 µM
- IC50 (SKOV-3 cell line; SKOV-3, absence of BSO, read-out: IC50 Control): 33 µM
- DMF +BSO (MTC) (SKOV-3 cell line; Table 5, SKOV-3, BSO at sub-MTC): 1.56
- DMF Control (SKOV-3 cell line; Table 5, SKOV-3, absence of BSO (reference)): 1.00
- RF +BSO (MTC) (SKOV-3 cell line; Table 6, SKOV-3 with BSO vs. 2008 without BSO): 14.9
- RF Control (SKOV-3 cell line; Table 6, SKOV-3 without BSO vs. 2008 without BSO): 23.2
- increase in antitumor activity in combination with BSO, isolated publications ([3]; isolated publications): up to 4 fold
- increase in antitumor activity in combination with BSO, usual ([3]; usually): under 2 fold
- IC50 (Human A2780 cell line; A2780, BSO at MTC, read-out: IC50 +BSO (MTC)): 4.25 µM
- IC50 (Human A2780 cell line; A2780, absence of BSO, read-out: IC50 Control): 6.75 µM
- DMF +BSO (MTC) (Human A2780 cell line; Table 5, A2780, BSO at MTC): 1.59
- DMF Control (Human A2780 cell line; Table 5, A2780, absence of BSO (reference)): 1.00
- RF Control (Human A2780 cell line; Table 6, A2780 parent line without BSO (reference)): 1.00
- IC50 (2008 cell line; 2008, BSO at MTC, read-out: IC50 +BSO (MTC)): 0.77 µM
- IC50 (2008 cell line; 2008, absence of BSO, read-out: IC50 Control): 1.42 µM
- DMF +BSO (MTC) (2008 cell line; Table 5, 2008, BSO at MTC): 1.84
- DMF Control (2008 cell line; Table 5, 2008, absence of BSO (reference)): 1.00
- RF Control (2008 cell line; Table 6, 2008 parent line without BSO (reference)): 1.00
- IC50 (2008/C13* cell line; 2008/C13*, BSO at MTC, read-out: IC50 +BSO (MTC)): 10.4 µM
- IC50 (2008/C13* cell line; 2008/C13*, absence of BSO, read-out: IC50 Control): 20.8 µM
- DMF +BSO (MTC) (2008/C13* cell line; Table 5, 2008/C13*, BSO at MTC): 2.00
- DMF Control (2008/C13* cell line; Table 5, 2008/C13*, absence of BSO (reference)): 1.00
- RF +BSO (MTC) (2008/C13* cell line; Table 6, 2008/C13* with BSO vs. 2008 without BSO): 7.32
- RF Control (2008/C13* cell line; Table 6, 2008/C13* without BSO vs. 2008 without BSO): 14.6
- Resistance Factor vs. 2780CP +10 μM BSO (Human 2780CP cell line; IC50 2780CP with 10 μM BSO / IC50 A2780 without BSO): 12.1
- Resistance Factor vs. 2780CP +3 mM BSO (MTC) (Human 2780CP cell line; IC50 2780CP with 3 mM BSO (MTC) / IC50 A2780 without BSO): 8.63
- Resistance Factor vs. 2780CP Control (Without BSO) (Human 2780CP cell line; IC50 2780CP without BSO / IC50 A2780 without BSO): 14.9
- IC50 (Human 2780CP cell line; 2780CP, BSO at MTC, read-out: IC50 +BSO (MTC)): 58.3 µM
- IC50 (Human 2780CP cell line; 2780CP, absence of BSO, read-out: IC50 Control): 101 µM
- DMF +BSO (MTC) (Human 2780CP cell line; Table 5, 2780CP, BSO at MTC): 1.73
- DMF Control (Human 2780CP cell line; Table 5, 2780CP, absence of BSO (reference)): 1.00
- RF +BSO (MTC) (Human 2780CP cell line; Table 6, 2780CP with BSO vs. A2780 without BSO): 8.63
- RF Control (Human 2780CP cell line; Table 6, 2780CP without BSO vs. A2780 without BSO): 14.9
- increase in antitumor activity when combined with BSO (Human 2780CP cell line; in both sensitive and resistant models (Table 2: A2780 and 2780CP)): less than 2 fold
- dose modification factor (DMF), potentiation by BSO ([1]; BSO pretreatment, RPMI 8322): 1.5
